Test results taken from patent US12629374B2, “Antimalarial agents” (Merck Sharp & Dohme LLC, priority 2020, dated 2026).
Like-named read-outs stand apart in the source and are kept apart here.

Tested on: ring stage parasites
Experiment: Parasite growth potency assay, 72 hours, LDH readout
Assay type: cell-based
Conditions: parasite growth measured by LDH assay after 72 hours at 37° C., 0.7% rings, 2% haematocrit, read-out: EC50
Protocol: The parasite stock was maintained at 4% haematocrit in RPMI-Hepes media buffered with sodium bicarbonate and supplemented with 5% heat inactivated human serum and 0.5% albumax.
On the day of assay set up, a blood smear of the parasite culture was Giemsa stained and counted. The parasitemia was adjusted to 0.7% rings and the haematocrit was diluted to 2% in RPMI-Hepes media buffered with sodium bicarbonate and supplemented with 5% heat inactivated human serum and 0.5% albumax. 30 ul of diluted parasites are then added into 10 ul of media+compound in pre-prepared Greiner TC assay plates. Parasite assay plates were placed in gassed humidified boxes in single layer and allowed to incubate at 37° C. for 72 hours. After 72 hours growth, assay plates are sealed with parafilm and frozen flat, in single file at −80° C. overnight. On the following day, assay plates are allowed to thaw at room temperature for 4 hours to which an LDH assay is performed to measure parasite growth.

SMILES | EC50 (72 h) [nM] | also measured
CC[C@]1(C)CC(=O)N(C(CCOC(F)F)c2cccc(C(=O)NC3c4ccccc4OC(C)(C)C3(C)O)c2)C(=N)N1 (single isomer, unassigned) [Example 240A] |  | EC50: 91.6 nM
CC[C@]1(C)CC(=O)N(C(CCOC(F)F)c2cccc(C(=O)NC3c4ccccc4OC(C)(C)C3(C)O)c2)C(=N)N1 (single isomer, unassigned) [Example 240B] |  | EC50: 0.25 nM
CCC[C@H](c1cccc(C(=O)NC2CC(C)(C)Oc3ccccc32)c1)N1C(=N)NC(CC)(CC)CC1=O (stereo in doubt) [Example 62A, [1-[1-[3-[(2,2-dimethylchroman-4-yl)carbamoyl]phenyl]butyl]-4,4-diethyl-6-oxo-hexahydropyrimidin-2-ylidene]ammonium; 2,2,2-trifluoroacetate] | 0.4 | 
CCC[C@@H](c1cccc(C(=O)NC2CC(C)(C)Oc3ccccc32)c1)N1C(=N)NC(CC)(CC)CC1=O (stereo in doubt) [Example 62B, [1-[1-[3-[(2,2-dimethylchroman-4-yl)carbamoyl]phenyl]butyl]-4,4-diethyl-6-oxo-hexahydropyrimidin-2-ylidene]ammonium; 2,2,2-trifluoroacetate] | 7.5 | 
CCC1(CC)CC(=O)N([C@@H](CCOC)c2cccc(C(=O)NC3CC(C)(C)Oc4ccccc43)c2)C(=N)N1 (stereo in doubt) [Example 72A, [1-[1-[3-[(2,2-dimethylchroman-4-yl)carbamoyl]phenyl]-3-methoxy-propyl]-4,4-diethyl-6-oxo-hexahydropyrimidin-2-ylidene]ammonium; 2,2,2-trifluoroacetate] | 25.5 | 
CCC1(CC)CC(=O)N([C@H](CCOC)c2cccc(C(=O)NC3CC(C)(C)Oc4ccccc43)c2)C(=N)N1 (stereo in doubt) [Example 72B, [1-[1-[3-[(2,2-dimethylchroman-4-yl)carbamoyl]phenyl]-3-methoxy-propyl]-4,4-diethyl-6-oxo-hexahydropyrimidin-2-ylidene]ammonium; 2,2,2-trifluoroacetate] | 0.3 | 
CC#CCC[C@H](c1cccc(C(=O)N[C@H]2CC(C)(C)Oc3ccccc32)c1)N1C(=N)NC(CC)(CC)CC1=O (stereo in doubt) [Example 83B, [1-[1-[3-[(2,2-dimethylchroman-4-yl)carbamoyl]phenyl]hex-4-ynyl]-4,4-diethyl-6-oxo-hexahydropyrimidin-2-ylidene]ammonium; 2,2,2-trifluoroacetate] | 0.4 | 
CCC1(CC)CC(=O)N(Cc2cccc(C(=O)N[C@@H]3c4ccccc4OCC3F)c2)C(=N)N1 (stereo in doubt) [Example 87, [4,4-diethyl-1-[[3-[(3-fluorochroman-4-yl)carbamoyl]phenyl]methyl]-6-oxo-hexahydropyrimidin-2-ylidene]ammonium; 2,2,2-trifluoroacetate] | 7.3 | 
CCC1(CC)CC(=O)N(Cc2cccc(C(=O)N[C@H]3CC(C)(C)Oc4ccc(F)cc43)c2)C(=N)N1 (stereo in doubt) [Example 88, [4,4-diethyl-1-[[3-[(6-fluoro-2,2-dimethyl-chroman-4-yl)carbamoyl]phenyl]methyl]-6-oxo-hexahydropyrimidin-2-ylidene]ammonium; 2,2,2-trifluoroacetate] | 0.4 | 
CCC1(CC)CC(=O)N(Cc2cc(C#N)cc(C(=O)N[C@@H]3CC(C)(C)Oc4ccccc43)c2)C(=N)N1 (stereo in doubt) [Example 89A, [1-[[3-cyano-5-[(2,2-dimethylchroman-4-yl)carbamoyl]phenyl]methyl]-4,4-diethyl-6-oxo-hexahydropyrimidin-2-ylidene]ammonium; 2,2,2-trifluoroacetate] | 9.8 | 
CCC1(CC)CC(=O)N(Cc2cc(C#N)cc(C(=O)N[C@H]3CC(C)(C)Oc4ccccc43)c2)C(=N)N1 (stereo in doubt) [Example 89B, [1-[[3-cyano-5-[(2,2-dimethylchroman-4-yl)carbamoyl]phenyl]methyl]-4,4-diethyl-6-oxo-hexahydropyrimidin-2-ylidene]ammonium; 2,2,2-trifluoroacetate] | 1.6 | 
CCC1(CC)CC(=O)N([C@@H](c2cccc(C(=O)N[C@@H]3CC(C)(C)Oc4ccccc43)c2)c2cncs2)C(=N)N1 (stereo in doubt) [Example 90A, 3-[(4,4-diethyl-2-imino-6-oxo-hexahydropyrimidin-1-yl)-thiazol-5-yl-methyl]-N-(2,2-dimethylchroman-4-yl)benzamide] |  | EC50: 3.2 nM
CCC1(CC)CC(=O)N([C@@H](c2cccc(C(=O)N[C@@H]3CC(C)(C)Oc4ccccc43)c2)c2cncs2)C(=N)N1 (stereo in doubt) [Example 90B, 3-[(4,4-diethyl-2-imino-6-oxo-hexahydropyrimidin-1-yl)-thiazol-5-yl-methyl]-N-(2,2-dimethylchroman-4-yl)benzamide] |  | EC50: 0.5 nM
CCC1(CC)CC(=O)N([C@H](c2cccc(C(=O)N[C@H]3CC(C)(C)Oc4ccccc43)c2)c2cncs2)C(=N)N1 (stereo in doubt) [Example 90C, 3-[(4,4-diethyl-2-imino-6-oxo-hexahydropyrimidin-1-yl)-thiazol-5-yl-methyl]-N-(2,2-dimethylchroman-4-yl)benzamide] | 12 | 
CCC1(CC)CC(=O)N(Cc2cccc(C(=O)N[C@H]3C[C@H](C(F)(F)F)Oc4ccccc43)c2)C(=N)N1 (stereo in doubt) [Example 91A, [4,4-diethyl-6-oxo-1-[[3-[[2-(trifluoromethyl)chroman-4-yl]carbamoyl]phenyl]methyl]hexa-hydropyrimidin-2-ylidene]ammonium; 2,2,2-trifluoroacetate] |  | EC50 (trifluoroacetate): 1.9 nM
CCC1(CC)CC(=O)N(Cc2cccc(C(=O)N[C@@H]3C[C@@H](C(F)(F)F)Oc4ccccc43)c2)C(=N)N1 (stereo in doubt) [Example 91B, [4,4-diethyl-6-oxo-1-[[3-[[2-(trifluoromethyl)chroman-4-yl]carbamoyl]phenyl]methyl]hexa-hydropyrimidin-2-ylidene]ammonium; 2,2,2-trifluoroacetate] | 63.7 | 
CCC1(CC)CC(=O)N([C@H](c2cncnc2)c2cccc(C(=O)N[C@H]3CC(C)(C)Oc4ccccc43)c2)C(=N)N1 (stereo in doubt) [Example 92B, 3-[(4,4-diethyl-2-imino-6-oxo-hexahydropyrimidin-1-yl)-pyrimidin-5-yl-methyl]-N-(2,2-dimethylchroman-4-yl)benzamide] | 0.9 | 
CCC1(CC)CC(=O)N(Cc2cccc(C(=O)N[C@H]3CC(C)(C)Oc4cc(F)ccc43)c2)C(=N)N1 (stereo in doubt) [Example 93, [4,4-diethyl-1-[[3-[(7-fluoro-2,2-dimethyl-chroman-4-yl)carbamoyl]phenyl]methyl]-6-oxo-hexahydropyrimidin-2-ylidene]ammonium; 2,2,2-trifluoroacetate] | 1.8 | 
CCC1(CC)CC(=O)N(Cc2cccc(C(=O)N[C@H]3CC(C)(C)Oc4cccc(F)c43)c2)C(=N)N1 (stereo in doubt) [Example 94A, [4,4-diethyl-1-[[3-[(5-fluoro-2,2-dimethyl-chroman-4-yl)carbamoyl]phenyl]methyl]-6-oxo-hexahydropyrimidin-2-ylidene]ammonium; 2,2,2-trifluoroacetate] | 0.4 | 
CCC1(CC)CC(=O)N(Cc2cccc(C(=O)N[C@@H]3CC(C)(C)Oc4cccc(F)c43)c2)C(=N)N1 (stereo in doubt) [Example 94B, [4,4-diethyl-1-[[3-[(5-fluoro-2,2-dimethyl-chroman-4-yl)carbamoyl]phenyl]methyl]-6-oxo-hexahydropyrimidin-2-ylidene]ammonium; 2,2,2-trifluoroacetate] | 72.5 | 
CCC1(CC)CC(=O)N(Cc2cccc(C(=O)N[C@H]3C[C@H](C(F)(F)F)Oc4ccccc43)c2)C(=N)N1 (stereo in doubt) [Example 97, [4,4-diethyl-6-oxo-1-[[3-[[2-(trifluoromethyl)chroman-4-yl]carbamoyl]phenyl]methyl]hexa-hydropyrimidin-2-ylidene]ammonium; 2,2,2-trifluoroacetate] |  | EC50 (trifluoroacetate): 10.6 nM
CCC1(CC)CC(=O)N(Cc2cccc(C(=O)N[C@H]3CC(C)(C)Oc4c3ccc(F)c4F)c2)C(=N)N1 (stereo in doubt) [Example 117, [1-[[3-[(7,8-difluoro-2,2-dimethyl-chroman-4-yl)carbamoyl]phenyl]methyl]-4,4-diethyl-6-oxo-hexahydropyrimidin-2-ylidene]ammonium; 2,2,2-trifluoroacetate] | 1.5 | 
CCC1(CC)CC(=O)N(Cc2cccc(C(=O)N[C@@H]3c4ccccc4CC3(C)O)c2)C(=N)N1 (stereo in doubt) [Example 121, 3-[(4,4-diethyl-2-imino-6-oxo-hexahydropyrimidin-1-yl)methyl]-N-(2-hydroxy-2-methyl-indan-1-yl)benzamide] | 8.6 | 
CCC1(CC)CC(=O)N(Cc2cccc(C(=O)N[C@@H]3c4ccccc4OCC3O)c2)C(=N)N1 (stereo in doubt) [Example 126B, 3-[(4,4-diethyl-2-imino-6-oxo-hexahydropyrimidin-1-yl)methyl]-N-(3-hydroxychroman-4-yl)benzamide] | 19.4 | 
CCC1(CC)CC(=O)N([C@H](CCOC)c2cccc(C(=O)N[C@@H]3c4ccccc4OC(C)(C)[C@H]3O)c2)C(=N)N1 (stereo in doubt) [Example 128, [4,4-diethyl-1-[1-[3-[(3-hydroxy-2,2-dimethyl-chroman-4-yl)carbamoyl]phenyl]-3-methoxy-propyl]-6-oxo-hexahydropyrimidin-2-ylidene]ammonium; 2,2,2-trifluoroacetate] | 1.1 | 
